The source of these data is patent US9115092B2, “Substituted quinazoline and pyrido-pyrimidine derivatives” (Asana Biosciences, LLC, priority 2010, dated 2015).

Assay [1] deals with pS6RP(S235/236), PC3 cells. The assay can be described thus: In-cell Western assay, pS6RP(S235/236) in PC3 cells. It counts as cell-based, human. To be noted: Homo sapiens, PC-3, In-cell Western. A digest of the protocol:
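Overnight-seeded PC3 cells were treated 2 h with serially diluted compound, then fixed and immunostained with phospho-specific primary antibodies and Eu-labelled secondary. Time-resolved Eu signal read at 615 nm (ex 340 nm), normalised by Hoechst 33258 staining (ex 355/em 460 nm); IC50 from sigmoidal dose-response fit.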

Assay [2] has as its target T1, PI3Kα (wild-type), P110/P85α (Homo sapiens, UniProt P42336).
T1 construct: made in house; host or cells: SF9 insect cells
The assay can be described thus: PI3 Kinase TR-FRET assay, PI3Kα (wild-type). The assay is classed as biochemical. A digest of the protocol:
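Sf9-expressed His-purified P110/P85α (5 ng) preincubated 60 min RT with compound and PIP2 in buffer with 40 mM MgCl2, 5 mM DTT; reaction started with ATP (PIP2 and ATP both 10 μM), 30 min RT. PIP3 detected by TR-FRET displacement, 665/615 nm ratio; IC50 from dose-response curves.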

The next assay relates to PC3 cells. The assay can be described thus: XTT assay for cell viability, PC3 cells. The settings on record: Homo sapiens, PC-3, cell viability. It counts as cell-based, human. In outline:
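PC3 cells seeded at 1000 cells/well, grown 24 h, then exposed to serial dilutions of compound for 96 h. Viability read by XTT dye at 37° C, absorbance 465 nm. EC50 from sigmoidal dose-response fit.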
(In general: Tetrazolium assays rely on reduction of a dye to a coloured formazan, in cell work by metabolically active cells.)

A further assay has as its target T2, mTOR kinase (Homo sapiens, UniProt P42345).
T2 construct: purchased Millipore, USA
In words: mTOR kinase TR-FRET assay. The settings on record: read-out: mTO R. It counts as biochemical. A digest of the protocol:
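Compounds preincubated 60 min with mTOR (5 ng) in HEPES pH 7.5, EGTA, MnCl2; ULight-p70 S6K Thr389 peptide (50 nM) and ATP (20 μM) then added, 60 min at room temperature. EDTA-stopped, Eu-anti-phospho antibody detection by TR-FRET (665/615 nm); IC50 from variable-slope sigmoidal fit.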
A general note: In TR-FRET formats the signal depends on donor and acceptor labels being close together.

T1 sequence (P42336 whole entry): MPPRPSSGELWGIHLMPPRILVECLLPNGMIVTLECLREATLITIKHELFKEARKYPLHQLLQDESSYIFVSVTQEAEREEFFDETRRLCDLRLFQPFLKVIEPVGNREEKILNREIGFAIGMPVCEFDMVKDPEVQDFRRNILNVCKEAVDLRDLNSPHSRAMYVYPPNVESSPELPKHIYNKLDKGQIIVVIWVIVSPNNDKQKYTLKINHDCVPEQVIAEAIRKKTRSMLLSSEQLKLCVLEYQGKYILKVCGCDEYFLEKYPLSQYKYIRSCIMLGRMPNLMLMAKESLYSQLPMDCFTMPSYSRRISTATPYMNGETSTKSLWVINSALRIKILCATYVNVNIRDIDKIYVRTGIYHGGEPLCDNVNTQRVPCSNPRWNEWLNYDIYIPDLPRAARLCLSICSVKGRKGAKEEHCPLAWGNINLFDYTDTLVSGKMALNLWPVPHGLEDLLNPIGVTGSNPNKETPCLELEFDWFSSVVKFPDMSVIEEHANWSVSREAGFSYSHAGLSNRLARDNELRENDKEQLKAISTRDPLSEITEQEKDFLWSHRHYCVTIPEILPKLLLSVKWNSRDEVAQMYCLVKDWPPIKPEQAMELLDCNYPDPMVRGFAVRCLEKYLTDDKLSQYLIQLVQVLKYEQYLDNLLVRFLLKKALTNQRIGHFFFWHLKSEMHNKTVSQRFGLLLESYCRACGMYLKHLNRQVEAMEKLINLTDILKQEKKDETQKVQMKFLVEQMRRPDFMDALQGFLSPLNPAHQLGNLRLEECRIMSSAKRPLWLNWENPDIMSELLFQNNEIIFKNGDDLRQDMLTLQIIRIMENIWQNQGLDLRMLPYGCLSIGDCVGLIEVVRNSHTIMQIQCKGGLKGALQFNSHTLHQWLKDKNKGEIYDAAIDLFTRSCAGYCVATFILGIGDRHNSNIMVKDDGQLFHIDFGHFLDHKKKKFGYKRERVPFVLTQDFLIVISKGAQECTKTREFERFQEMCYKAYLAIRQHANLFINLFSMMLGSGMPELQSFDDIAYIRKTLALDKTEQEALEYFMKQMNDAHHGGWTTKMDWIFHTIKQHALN
T1 sequence (P27986 whole entry partner): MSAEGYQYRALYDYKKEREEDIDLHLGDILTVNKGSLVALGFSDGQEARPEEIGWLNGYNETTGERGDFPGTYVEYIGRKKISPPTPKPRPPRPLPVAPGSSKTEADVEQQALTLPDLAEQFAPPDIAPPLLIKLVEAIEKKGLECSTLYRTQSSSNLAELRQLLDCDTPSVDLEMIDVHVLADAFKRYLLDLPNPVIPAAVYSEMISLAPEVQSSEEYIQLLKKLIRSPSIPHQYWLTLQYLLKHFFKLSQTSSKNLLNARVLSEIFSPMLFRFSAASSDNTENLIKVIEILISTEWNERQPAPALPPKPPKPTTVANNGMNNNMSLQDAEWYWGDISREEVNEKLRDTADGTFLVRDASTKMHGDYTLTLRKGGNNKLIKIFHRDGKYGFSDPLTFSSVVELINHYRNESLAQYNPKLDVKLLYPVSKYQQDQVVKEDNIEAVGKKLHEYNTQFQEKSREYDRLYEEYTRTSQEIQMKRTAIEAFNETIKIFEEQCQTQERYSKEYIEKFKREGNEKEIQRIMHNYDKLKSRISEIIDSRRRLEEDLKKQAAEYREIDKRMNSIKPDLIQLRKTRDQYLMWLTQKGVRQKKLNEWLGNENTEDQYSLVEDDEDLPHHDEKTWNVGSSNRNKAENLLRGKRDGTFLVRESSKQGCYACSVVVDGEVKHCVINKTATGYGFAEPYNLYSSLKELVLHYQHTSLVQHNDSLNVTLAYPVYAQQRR

Regarding `CN(C)C(=O)c1ccc(NC(=O)Nc2ccc(-c3nc(N4CCOCC4)c4ccc(-c5ccc(C#N)o5)cc4n3)cc2)cc1` [Example 223, 4-(3-(4-(7-(5-cyanofuran-2-yl)-4-morpholino-quinazolin-2-yl)phenyl)ureido)-N,N-dimethyl-benzamide], the IC50 is 0.201 to 10 µM in assay [1], less than 0.05 µM in assay [2], 0.201 to 10 µM with PC3 cells and less than 0.05 µM on mTOR kinase.

Turning to `Cc1ccc(-c2ccc3c(N4CCOCC4)nc(-c4ccc(NC(=O)Nc5ccc(C(=O)N6CCC(O)C6)cc5)cc4)nc3c2)o1` (stereo not shown) [Example 204, 1-(4-(3-hydroxypyrrolidine-1-carbonyl)phenyl)-3-(4-(7-(5-methylfuran-2-yl)-4-morpholino-quinazolin-2-yl)phenyl)urea], the IC50 is less than 0.1 µM in assay [1], less than 0.05 µM in assay [2], less than 0.1 µM with PC3 cells and less than 0.05 µM at mTOR kinase.

`CN(C)C(=O)c1ccc(NC(=O)Nc2ccc(-c3nc(N4CCOCC4)c4ncc(-c5cnn(C)c5)cc4n3)cn2)cc1` [Example 85, N,N-dimethyl-4-(3-(5-(7-(1-methyl-1H-pyrazol-4-yl)-4-morpholino-pyrido[3,2-d]pyrimidin-2-yl)pyridin-2-yl)ureido)-benzamide]: the IC50 in assay [1] was 0.201 to 10 µM; in assay [2] it was less than 0.05 µM; in the assay on PC3 cells, 0.201 to 10 µM; at mTOR kinase, less than 0.05 µM.

In the case of `CN(C)C(=O)c1ccc(NC(=O)Nc2ccc(-c3nc(N4CCOCC4)c4ccc(-c5cccc(O)c5)cc4n3)cc2)cc1` [Example 41, 4-(3-{4-[7-(3-hydroxy-phenyl)-4-morpholin-4-yl-quinazolin-2-yl]-phenyl}-ureido)-N,N-dimethyl-benzamide], the IC50 in assay [1] was less than 0.1 µM; in assay [2], less than 0.05 µM; in the assay with PC3 cells it was 0.1 to 0.5 µM; at mTOR kinase it was 0.05 to 0.2 µM.

On to `CN(C)C(=O)c1ccc(NC(=O)Nc2ccc(-c3nc(N4CCOCC4)c4ccc(-c5cncnc5)cc4n3)c(F)c2)cc1` [Example 237, 4-(3-(3-fluoro-4-(4-morpholino-7-(pyrimidin-5-yl)quinazolin-2-yl)phenyl)ureido)-N,N-dimethyl-benzamide], for which the IC50 was 0.201 to 10 µM in assay [1], less than 0.05 µM in assay [2], 0.201 to 10 µM in the assay on PC3 cells and less than 0.05 µM on mTOR kinase.

Regarding `NC1CCN(C(=O)c2ccc(NC(=O)Nc3ccc(-c4nc(N5CCOCC5)c5ccc(-c6cncnc6)cc5n4)cc3F)cc2)C1` (stereo in doubt) [Example 208, (S)-1-(4-(3-aminopyrrolidine-1-carbonyl)phenyl)-3-(2-fluoro-4-(4-morpholino-7-(pyrimidin-5-yl)quinazolin-2-yl)phenyl)urea], the IC50 is 0.201 to 10 µM in assay [1], less than 0.05 µM in assay [2], 0.201 to 10 µM in the assay on PC3 cells and less than 0.05 µM at mTOR kinase.

Take `Cc1ccc(-c2ccc3c(N4CCOCC4)nc(-c4ccc(NC(=O)Nc5ccc(C(=O)N(C)C)nc5)nc4)nc3c2)o1` [Example 129, N,N-dimethyl-5-(3-(5-(7-(5-methylfuran-2-yl)-4-morpholino-quinazolin-2-yl)pyridin-2-yl)ureido)picolinamide]: the IC50 in assay [1] was less than 0.1 µM; in assay [2], less than 0.05 µM; in the assay with PC3 cells, 0.501 to 5 µM; at mTOR kinase, 0.05 to 0.2 µM.

For the compound `CN(C)C(=O)c1ccc(NC(=O)Nc2ccc(-c3nc(N4CCOCC4)c4ccc(-c5ccnnc5)cc4n3)cc2F)cc1` [Example 98, 4-(3-(2-fluoro-4-(4-morpholino-7-(pyridazin-4-yl)quinazolin-2-yl)phenyl)ureido)-N,N-dimethyl-benzamide], the IC50 was 0.201 to 10 µM in assay [1], 0.05 to 0.2 µM in assay [2], 0.201 to 10 µM in the assay with PC3 cells and less than 0.05 µM at mTOR kinase.

Consider `N[C@H]1CCN(C(=O)c2ccc(NC(=O)Nc3ccc(-c4nc(N5CCOCC5)c5ccc(-c6cncnc6)cc5n4)cc3)cc2)C1` [Example 194, (S)-1-(4-(3-aminopyrrolidine-1-carbonyl)phenyl)-3-(4-(4-morpholino-7-(pyrimidin-5-yl)quinazolin-2-yl)phenyl)urea], for which the IC50 was 0.201 to 10 µM in assay [1], less than 0.05 µM in assay [2], 0.201 to 10 µM in the assay on PC3 cells and less than 0.05 µM at mTOR kinase.

For `Cc1noc(C)c1-c1cnc2c(N3CCOCC3)nc(-c3ccc(NC(=O)Nc4ccc(C(=O)N(C)C)cc4)cc3)nc2c1` [Example 120, 4-(3-(4-(7-(3,5-dimethylisoxazol-4-yl)-4-morpholino-pyrido[3,2-d]pyrimidin-2-yl)phenyl)ureido)-N,N-dimethyl-benzamide], the IC50 in assay [1] was 0.201 to 10 µM; in assay [2], less than 0.05 µM; in the assay with PC3 cells it was 0.201 to 10 µM; on mTOR kinase, less than 0.05 µM.

For `Cc1ccc(-c2ccc3c(N4CCOCC4)nc(-c4ccc(NC(=O)Nc5ccc(C(=O)NCCN(C)C)cc5)cc4)nc3c2)o1` [Example 201, N-(2-(dimethylamino)ethyl)-4-(3-(4-(7-(5-methylfuran-2-yl)-4-morpholino-quinazolin-2-yl)phenyl)ureido)-benzamide], the IC50 in assay [1] was 0.501 to 5 µM; in assay [2] it was 0.05 to 0.2 µM; in the assay on PC3 cells it was 0.501 to 5 µM; at mTOR kinase it was less than 0.05 µM.

`CN(C)C(=O)c1ccc(NC(=O)Nc2ccc(-c3nc(N4CCOCC4)c4ccc(-c5cccnc5F)cc4n3)c(F)c2)cc1` [Example 241, 4-(3-(3-fluoro-4-(7-(2-fluoropyridin-3-yl)-4-morpholino-quinazolin-2-yl)phenyl)ureido)-N,N-dimethyl-benzamide]: the IC50 was 0.201 to 10 µM in assay [1], less than 0.05 µM in assay [2], 0.201 to 10 µM in the assay with PC3 cells and 0.05 to 0.2 µM at mTOR kinase.

On to `CN(C)C(=O)c1ccc(NC(=O)Nc2ccc(-c3nc(N4CCOCC4)c4ncc(-c5cncnc5)cc4n3)cc2F)cc1` [Example 101, 4-(3-(2-fluoro-4-(4-morpholino-7-(pyrimidin-5-yl)pyrido[3,2-d]pyrimidin-2-yl)phenyl)ureido)-N,N-dimethyl-benzamide], for which the IC50 in assay [1] was 0.201 to 10 µM; in assay [2], less than 0.05 µM; in the assay with PC3 cells, 0.201 to 10 µM; on mTOR kinase, less than 0.05 µM.

As for `CN(C)C(=O)c1ccc(NC(=O)Nc2ccc(-c3nc(N4CCOCC4)c4ncc(-c5cnc(N)nc5)cc4n3)cc2F)cc1` [Example 127, 4-(3-(4-(7-(2-aminopyrimidin-5-yl)-4-morpholinopyrido[3,2-d]pyrimidin-2-yl)-2-fluorophenyl)ureido)-N,N-dimethyl-benzamide], the IC50 in assay [1] is 0.201 to 10 µM; in assay [2] it was less than 0.05 µM; in the assay on PC3 cells, 0.201 to 10 µM; at mTOR kinase it was less than 0.05 µM.

Consider `CN(C)C(=O)c1ccc(NC(=O)Nc2ccc(-c3nc(N4CCOCC4)c4ncc(-c5cnn(C)c5)cc4n3)c(F)c2)cc1` [Example 238, 4-(3-(3-fluoro-4-(7-(1-methyl-1H-pyrazol-4-yl)-4-morpholino-pyrido[3,2-d]pyrimidin-2-yl)phenyl)ureido)-N,N-dimethyl-benzamide], for which the IC50 in assay [1] was 0.201 to 10 µM; in assay [2] it was less than 0.05 µM; in the assay on PC3 cells, 0.201 to 10 µM; at mTOR kinase, less than 0.05 µM.

For `CN(C)C(=O)c1ccc(NC(=O)Nc2ccc(-c3nc(N4CCOCC4)c4ccc(-c5ccncc5)cc4n3)cc2F)cc1` [Example 137, 4-(3-(2-fluoro-4-(4-morpholino-7-(pyridin-4-yl)quinazolin-2-yl)phenyl)ureido)-N,N-dimethyl-benzamide], the IC50 in assay [1] was in the range of 0.201 to 10 µM; in assay [2], 0.05 to 0.2 µM; with PC3 cells it was 0.201 to 10 µM; at mTOR kinase, 0.05 to 0.2 µM.

As for `CN(C)C(=O)c1ccc(NC(=O)Nc2ccc(-c3nc(N4CCOCC4)c4cc(F)c(-c5cncnc5)cc4n3)cc2F)cc1` [Example 99, 4-(3-(2-fluoro-4-(6-fluoro-4-morpholino-7-(pyrimidin-5-yl)quinazolin-2-yl)phenyl)ureido)-N,N-dimethyl-benzamide], the IC50 is 0.201 to 10 µM in assay [1], less than 0.05 µM in assay [2], 0.201 to 10 µM in the assay on PC3 cells and less than 0.05 µM at mTOR kinase.

Take `CN(C)C(=O)c1ccc(NC(=O)Nc2ccc(-c3nc(N4CCOCC4)c4ncc(-c5cnc(N)nc5)cc4n3)cc2)cc1` [Example 92, 4-(3-(4-(7-(2-aminopyrimidin-5-yl)-4-morpholino-pyrido[3,2-d]pyrimidin-2-yl)phenyl)ureido)-N,N-dimethyl-benzamide]: the IC50 in assay [1] was 0.201 to 10 µM; in assay [2], less than 0.05 µM; with PC3 cells it was 0.201 to 10 µM; on mTOR kinase it was less than 0.05 µM.

As to `CN(C)C1CCN(C(=O)c2ccc(NC(=O)Nc3ccc(-c4nc(N5CCOCC5)c5ccc(-c6cccnc6F)cc5n4)cn3)cc2)CC1` [Example 81, 1-(4-(4-(dimethylamino)piperidine-1-carbonyl)phenyl)-3-(5-(7-(2-fluoropyridin-3-yl)-4-morpholine-quinazolin-2-yl)pyridin-2-yl)urea], the IC50 in assay [1] was less than 0.1 µM; in assay [2], less than 0.05 µM; with PC3 cells it was 0.501 to 5 µM; on mTOR kinase, less than 0.05 µM.
